# Data from US20250034164A1, “NOVEL COMPOUND AND COMPOSITION FOR PREVENTING OR TREATING NEUROINFLAMMATORY BRAIN DISEASES COMPRISING SAME AS ACTIVE INGREDIENT” (KOREA INSTITUTE OF OCEAN SCIENCE & TECHNOLOGY, priority 2021, published 2025).
# pIC50: −log10 of the molar value.
# System: nitric oxide (NO) produced in mouse BV-2 microglia cells stimulated with LPS
# Assay: NO production inhibition in LPS-stimulated BV-2 microglia cells (Griess reagent)
# Format: cell-based
# Settings: BV-2 cells, LPS 200 ng/ml, treated at 2.5 to 20 PM (FIG. 37A)
# Method: BV-2 microglia cells were cultured in a humidified 5% CO2 incubator at 37° C. using a Dulbecco's modified Eagle medium supplemented with 5% fetal bovine serum and 1% penicillin/streptomycin at 100 units/mL.
# In all experiments, the number of cells was 2.5×10^5 cell/ml, the cells were first treated with each of Compounds of Examples 1 to 25 by concentration (2.5 to 200 μg/ml), and LPS was diluted in medium and used at a concentration of 200 ng/ml. A cytotoxicity test was performed using MTT assay, and the MTT assay was performed by performing NO assay and injecting 30 μl of MTT at a concentration of 0.5 mg/ml into the cells in a microplate. After reacting for 2 hours in the incubator, formazan crystals were dissolved in 100 μl of DMSO, and the absorbance was measured using a Vmax microplate reader (Tencan Co., Switzerland) with a wavelength of 540 nm. In order to quantitatively measure the production of nitric oxide (NO), mouse BV-2 microglia cells were prepared in a microplate (96 well), and added with LPS (200 ng/ml) and Compounds by concentration (2.5 to 200 μg/ml). The cells reacted in an incubator for 24 h, and 50 μl of the supernatant reacted with a Griess reagent (a mixed solution of 1% sulfanilamide, 0.1% N-(1-naphthyl)-ethylenediamine dihydrochloride, and 2.5% H3PO4), and then the absorbance was measured using a Vmax 96-well microplate spectrophotometer with a wavelength of 550 nm.
# In order to analyze the anti-inflammatory efficacy of Compound of Example 1, the concentration inhibitory effect of nitric oxide (NO) produced in mouse BV-2 microglia cells stimulated with LPS (200 ng/ml), a neuroinflammatory factor, was confirmed.
# The neuroinflammation inhibitory effects of Compounds of Examples 2 to 25 were confirmed.
# In order to analyze the anti-inflammatory efficacy of Compound 26 of Chemical Formula 2, the concentration inhibitory effect of nitric oxide (NO) produced in mouse BV-2 microglia cells stimulated with LPS (200 ng/ml), a neuroinflammatory factor, was confirmed. Compound 26 of Chemical Formula 2 was purchased from Santa Cruz biotechnology (CAS 79127-35-8) and the experiment was performed. As a result of treating Compound of Chemical Formula 2 at […], it was confirmed that the amount of nitric oxide (NO) was reduced, as shown in FIG. 37A.
row,SMILES,amount of nitric oxide (NO)
1,"NC(=O)C1=C[C@H]2[C@@H]3C=CC2(O)C(=O)O[C@@H]3O1 (stereo in doubt) [Compound 26, (1S,4aS,5R,7aS)-5-hydroxy-8-oxo-1,4a,5,7a-tetrahydro-1,5-(epoxymethano)cyclopenta[c]pyran-3-carboxamide]",reduced

# Same assay, conditions: mouse BV-2 microglia cells, LPS 200 ng/ml, 24 h; read-out: NO inhibitory activity (IC50 value)
row,SMILES,pIC50
1,"O=C(OCC1=C[C@H]2[C@@H]3C=C[C@H]2C(=O)O[C@@H]3O1)c1ccc([N+](=O)[O-])cc1 [Compound 21, ((1S,4aS,5R,7aS)-8-oxo-1,4a,5,7a-tetrahydro-1,5-(epoxymethano)cyclopenta[c]pyran-3-yl)methyl 4-nitrobenzoate]",< 4.70
2,"O=C(OCC1=C[C@H]2[C@@H]3C=C[C@H]2C(=O)O[C@@H]3O1)c1ccc(-c2ccccc2)cc1 [Compound 12, ((1S,4aS,5R,7aS)-8-oxo-1,4a,5,7a-tetrahydro-1,5-(epoxymethano)cyclopenta[c]pyran-3-yl)methyl [1,1′-biphenyl]-4-carboxylate]",< 4.70
3,"O=C(OCC1=C[C@H]2[C@@H]3C=C[C@H]2C(=O)O[C@@H]3O1)c1ccc(Cl)cc1 [Compound 19, ((1S,4aS,5R,7aS)-8-oxo-1,4a,5,7a-tetrahydro-1,5-(epoxymethano)cyclopenta[c]pyran-3-yl)methyl 4-chlorobenzoate]",4.84
4,"O=C1O[C@@H]2OC(CCl)=C[C@H]3[C@@H]2C=C[C@@H]13 [Compound 25, (1S,4aS,5R,7aS)-3-(chloromethyl)-1,4a,5,7a-tetrahydro-1,5-(epoxymethano)cyclopenta[c]pyran-8-one]",< 4.70
5,"O=C(OCC1=C[C@H]2[C@@H]3C=C[C@H]2C(=O)O[C@@H]3O1)c1ccccc1 [Compound 7, ((1S,4aS,5R,7aS)-8-oxo-1,4a,5,7a-tetrahydro-1,5-(epoxymethano)cyclopenta[c]pyran-3-yl)methyl benzoate]",< 4.70
6,"C#CC/N=C/C1=C[C@H]2[C@@H]3C=C[C@H]2C(=O)O[C@@H]3O1 [Compound 15, (1S,4aS,5R,7aS)-3-((E)-(prop-2-yn-1-ylimino)methyl)-1,4a,5,7a-tetrahydro-1,5-(epoxymethano)cyclopenta[c]pyran-8-one]",4.91
7,"COCC1=C[C@H]2[C@@H]3C=C[C@H]2C(=O)O[C@@H]3O1 [Compound 3, (1S,4aS,5R,7aS)-3-(methoxymethyl)-1,4a,5,7a-tetrahydro-1,5-(epoxymethano)cyclopenta[c]pyran-8-one]",< 4.70
8,"C#CC(=O)OCC1=C[C@H]2[C@@H]3C=C[C@H]2C(=O)O[C@@H]3O1 [Compound 14, ((1S,4aS,5R,7aS)-8-oxo-1,4a,5,7a-tetrahydro-1,5-(epoxymethano)cyclopenta[c]pyran-3-yl)methyl propiolate]",5.85
9,"C=CCCCCCCCCC(=O)OCC1=C[C@H]2[C@@H]3C=C[C@H]2C(=O)O[C@@H]3O1 [Compound 8, ((1S,4aS,5R,7aS)-8-oxo-1,4a,5,7a-tetrahydro-1,5-(epoxymethano)cyclopenta[c]pyran-3-yl)methylundec-10-enoate]",< 4.70
10,"O=C(OCC1=C[C@H]2[C@@H]3C=C[C@H]2C(=O)O[C@@H]3O1)c1ccc(F)cc1 [Compound 18, ((1S,4aS,5R,7aS)-8-oxo-1,4a,5,7a-tetrahydro-1,5-(epoxymethano)cyclopenta[c]pyran-3-yl)methyl 4-fluorobenzoate]",< 4.70
11,"O=C(OCC1=C[C@H]2[C@@H]3C=C[C@H]2C(=O)O[C@@H]3O1)c1cc2ccccc2o1 [Compound 17, ((1S,4aS,5R,7aS)-8-oxo-1,4a,5,7a-tetrahydro-1,5-(epoxymethano)cyclopenta[c]pyran-3-yl)methyl benzofuran-2-carboxylate]",< 4.70
12,"O=C1O[C@@H]2OC(CBr)=C[C@H]3[C@@H]2C=C[C@@H]13 [Compound 23, (1S,4aS,5R,7aS)-3-(bromomethyl)-1,4a,5,7a-tetrahydro-1,5-(epoxymethano)cyclopenta[c]pyran-8-one]",< 4.70
13,"O=C(OCC1=C[C@H]2[C@@H]3C=C[C@H]2C(=O)O[C@@H]3O1)c1ccc2ccccc2c1 [Compound 13, ((1S,4aS,5R,7aS)-8-oxo-1,4a,5,7a-tetrahydro-1,5-(epoxymethano)cyclopenta[c]pyran-3-yl)methyl 2-naphthoate]",< 4.70
14,"O=C(OCC1=C[C@H]2[C@@H]3C=C[C@H]2C(=O)O[C@@H]3O1)c1cccc2c1-c1ccccc1C2=O [Compound 16, ((1S,4aS,5R,7aS)-8-oxo-1,4a,5,7a-tetrahydro-1,5-(epoxymethano)cyclopenta[c]pyran-3-yl)methyl 9-oxo-9H-fluorene-4-carboxylate]",5.42
15,"O=C1O[C@@H]2OC(CI)=C[C@H]3[C@@H]2C=C[C@@H]13 [Compound 22, (1S,4aS,5R,7aS)-3-(iodomethyl)-1,4a,5,7a-tetrahydro-1,5-(epoxymethano)cyclopenta[c]pyran-8-one]",< 4.70
16,"COc1ccc(C(=O)OCC2=C[C@H]3[C@@H]4C=C[C@H]3C(=O)O[C@@H]4O2)cc1 [Compound 11, ((1S,4aS,5R,7aS)-8-oxo-1,4a,5,7a-tetrahydro-1,5-(epoxymethano)cyclopenta[c]pyran-3-yl)methyl 4-methoxybenzoate]",< 4.70
17,"O=C(OCC1=C[C@H]2[C@@H]3C=C[C@H]2C(=O)O[C@@H]3O1)c1ccc(I)cc1 [Compound 20, ((1S,4aS,5R,7aS)-8-oxo-1,4a,5,7a-tetrahydro-1,5-(epoxymethano)cyclopenta[c]pyran-3-yl)methyl 4-iodobenzoate]",< 4.70
18,"Cc1ccc(C(=O)OCC2=C[C@H]3[C@@H]4C=C[C@H]3C(=O)O[C@@H]4O2)cc1 [Compound 10, ((1S,4aS,5R,7aS)-8-oxo-1,4a,5,7a-tetrahydro-1,5-(epoxymethano)cyclopenta[c]pyran-3-yl)methyl 4-methyl benzoate]",< 4.70
19,"CC(=O)OCC1=C[C@H]2[C@@H]3C=C[C@H]2C(=O)O[C@@H]3O1 [Compound 2, ((1S,4aS,5R,7aS)-8-oxo-1,4a,5,7a-tetrahydro-1,5-(epoxymethano)cyclopenta[c]pyran-3-yl)methyl acetate]",< 4.70
20,"CCC(C)C(=O)OCC1=C[C@H]2[C@@H]3C=C[C@H]2C(=O)O[C@@H]3O1 (stereo partly drawn) [Compound 9, ((1S,4aS,5R,7aS)-8-oxo-1,4a,5,7a-tetrahydro-1,5-(epoxymethano)cyclopenta[c]pyran-3-yl)methyl 2-methyl butanoate]",< 4.70
21,"O=C(O)C1=C[C@H]2[C@@H]3C=C[C@H]2C(=O)O[C@@H]3O1 [Compound 5, (1S,4aS,5R,7aS)-8-oxo-1,4a,5,7a-tetrahydro-1,5-(epoxymethano)cyclopenta[c]pyran-3-carboxylic acid]",< 4.70
22,"O=C1O[C@@H]2OC(CO)=C(Br)[C@H]3[C@@H]2C=C[C@@H]13 [Compound 24, (1S,4aS,5R,7aS)-4-bromo-3-(hydroxymethyl)-1,4a,5,7a-tetrahydro-1,5-(epoxymethano)cyclopenta[c]pyran-8-one]",> 4.70
